Source: patent publication US8853246B2 (Dow AgroSciences LLC, priority 2009, dated 2014)
Where two headings read alike, the source gives them in different places.

Key:
[1] = tested on: Sweetpotato Whitefly-Crawler (Bemisia Tabaci); assay: Insecticidal test for sweetpotato whitefly-crawler in foliar spray assay (col. BEMITA); format: in vivo; settings: Bemisia tabaci, read-out: BEMITA 200 ppm (Corrected % Control, rating)
How it was run: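 Percent control, Abbott-corrected against diluent-sprayed plants, from microscope counts of live nymphs 8-9 days after treatment. Test solution at 200 ppm in 0.025% aqueous Tween 20 applied to both leaf sides of egg-infested cotton after a 5-6 day hatch period (82° F, 50% RH).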

[2] = tested on: Green Peach Aphid (Myzus Persicae); assay: Insecticidal test for green peach aphid in foliar spray assay (col. MYZUPE); format: in vivo; settings: Myzus persicae, 72 h, read-out: MYZUPE 200 ppm (Corrected % Control, rating)
How it was run: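 Corrected % control derives from microscope counts of live aphids per plant, treated against diluent-only checks, 3 days after foliar spraying at ~25 °C and 40% RH. Test solution was 200 ppm in 0.025% aqueous Tween 20, applied to both leaf sides of infested cabbage seedlings, four pots each.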

| SMILES | melting point [°C] | pest or weed control at 200 ppm ([1]; sweetpotato whitefly-crawler) [%] | pest or weed control at 200 ppm ([2]; green peach aphid) [%] | pest or weed control at 200 ppm ([1]; Abbott's correction formula) [%] | pest or weed control at 200 ppm ([2]; Abbott's correction formula) [%] |
| --- | --- | --- | --- | --- | --- |
| CSCCC(=O)Nc1sc(-c2cccnc2)nc1C [Compound 55] | 136 to 139 | 80 to 100 | 80 to 100 | – | – |
| CC(C)(C)OC(=O)Nc1sc(-c2cccnc2)nc1F [Compound 478] | 184 to 186 | – | – | < 80 | 80 to 100 |
| CC(C[S+](C)[O-])C(=O)N(C)c1sc(-c2cnc(Cl)c(F)c2)nc1Cl (stereo not drawn) [Compound 474] | 30 to 35 | – | – | < 80 | < 80 |
| CC(C[S+](C)[O-])C(=O)Nc1sc(-c2cncc(F)c2)nc1Br (stereo not drawn) [Compound 306] | 172 to 175 | < 80 | 80 to 100 | – | – |
| CN(C(=O)c1cnn(C)c1)c1sc(-c2cncc(F)c2)nc1Cl [Compound 268] | 151 to 155 | 80 to 100 | 80 to 100 | – | – |
| Cc1nc(-c2cccnc2)sc1NC(=O)OCc1ccccc1 [Compound 201] | 137 to 139 | < 80 | < 80 | – | – |
| CC(C)(C)OC(=O)Nc1sc(-c2cncc(F)c2)nc1Br [Compound 297] | 164 to 166 | < 80 | < 80 | – | – |
| COc1ncc(-c2nc(Cl)c(N(C)C(=O)CC[S+](C)[O-])s2)cc1F (stereo not drawn) [Compound 558] | 132 to 135 | – | – | < 80 | < 80 |
| Cc1nc(-c2cccnc2)sc1NC(=O)C(C)C [Compound 58] | 159 to 162 | 80 to 100 | 80 to 100 | – | – |
| CCc1cc(C(=O)N(C)c2sc(-c3cccnc3)nc2Cl)no1 [Compound 383] | 121 to 124 | 80 to 100 | < 80 | – | – |
| Cc1nc(-c2cncc(F)c2)sc1NC(=O)CC[S+](C)[O-] (stereo not drawn) [Compound 147] | 181 to 184 | < 80 | 80 to 100 | – | – |
| Cc1nc(-c2cncc(F)c2)sc1N(C)C(=O)C(C)CS(C)(=O)=O (stereo not drawn) [Compound 98] | 105 to 109 | 80 to 100 | 80 to 100 | – | – |
| Cc1nc(-c2cccnc2)sc1NC(=O)c1cnn(C)c1 [Compound 355] | 219 to 222 | < 80 | 80 to 100 | – | – |
| Cc1cncc(-c2nc(C)c(NC(=O)OC(C)(C)C)s2)c1 [Compound 150] | 135 to 138 | < 80 | 80 to 100 | – | – |
| Cc1nc(-c2cccnc2)sc1NC(=O)C(C)(C)C[S+](C)[O-] (stereo not drawn) [Compound 94] | 55 to 60 | < 80 | 80 to 100 | – | – |
| CSC(C)(C)CC(=O)Nc1sc(-c2cncc(F)c2)nc1C [Compound 217] | 123 to 126 | < 80 | 80 to 100 | – | – |
| CSCC(C)(C)C(=O)N(C)c1sc(-c2cncnc2)nc1C [Compound 53] | 123 to 125 | 80 to 100 | < 80 | – | – |
| CSCC(C)C(=O)N(C)c1sc(-c2cncc(Br)c2)nc1C (stereo not drawn) [Compound 296] | 79 to 81 | 80 to 100 | 80 to 100 | – | – |
| Cc1nc(-c2cncc(Br)c2)sc1N(C)C(=O)OC(C)(C)C [Compound 251] | 74 to 76 | 80 to 100 | < 80 | – | – |
| CCN(C(=O)C(C)CS(C)(=O)=O)c1sc(-c2cccnc2)nc1Cl (stereo not drawn) [Compound 349] | 152 to 154 | 80 to 100 | 80 to 100 | – | – |
| CSCC(C)C(=O)N(C)c1cnc(-c2cccnc2)s1 (stereo not drawn) [Compound 28] | 98 to 100 | 80 to 100 | 80 to 100 | – | – |
| Cc1nc(-c2cccnc2)sc1NC(=O)C(C)C[S+](C)[O-] (stereo not drawn) [Compound 92] | 160 to 163 | < 80 | 80 to 100 | – | – |
| CSCC(C)C(=O)N(C(=O)OC(C)(C)C)c1sc(-c2cncc(C#N)c2)nc1C (stereo not drawn) [Compound 158] | 125 to 128 | < 80 | < 80 | – | – |
| CN(C(=O)C(C)(C)C[S+](C)[O-])c1cnc(-c2cncc(F)c2)s1 (stereo not drawn) [Compound 85] | 155 to 159 | 80 to 100 | 80 to 100 | – | – |

| SMILES | melting point [°C] | pest or weed control at 200 ppm ([1]; sweetpotato whitefly-crawler) [%] | pest or weed control at 200 ppm ([2]; green peach aphid) [%] | pest or weed control at 200 ppm ([1]; Abbott's correction formula) [%] | pest or weed control at 200 ppm ([2]; Abbott's correction formula) [%] |
| --- | --- | --- | --- | --- | --- |
| CC(=O)N(C)c1cnc(-c2cccnc2)s1 [Compound 22] | 162 to 163 | < 80 | < 80 | – | – |
| CSCCN(C(=O)OC(C)(C)C)c1sc(-c2cccnc2)nc1C [Compound 567] | 63 to 68 | – | – | < 80 | 80 to 100 |
| CSCCC(=O)Nc1sc(-c2cncc(F)c2)nc1C [Compound 142] | 126 to 130 | < 80 | 80 to 100 | – | – |
| CC(=O)N(C)c1sc(-c2cccnc2)nc1C [Compound 193] | 127 to 130 | 80 to 100 | 80 to 100 | – | – |
| CC(C)(C)OC(=O)N(C(=O)OC(C)(C)C)c1sc(-c2cncc(F)c2)nc1Br [Compound 317] | 154 to 156 | < 80 | 80 to 100 | – | – |
| CCN(C(=O)c1cocn1)c1sc(-c2cccnc2)nc1Cl [Compound 570] | 118 to 120 | – | – | < 80 | 80 to 100 |
| Cc1nc(-c2cncc(F)c2)sc1NC(=O)CCS(C)(=O)=O [Compound 148] | 230 to 232 | < 80 | 80 to 100 | – | – |
| CC(CS(C)(=O)=O)C(=O)Nc1sc(-c2cncc(F)c2)nc1Br (stereo not drawn) [Compound 307] | 185 to 188 | < 80 | 80 to 100 | – | – |
| CCSCC(=O)Nc1sc(-c2cccnc2)nc1C [Compound 373] | 157 to 158 | 80 to 100 | 80 to 100 | – | – |
| CSCCC(=O)N(C)c1cnc(-c2ccc(Cl)nc2)s1 [Compound 70] | 160 to 164 | < 80 | < 80 | – | – |
| C=CC(=O)N(C(=O)OC(C)(C)C)c1sc(-c2cccnc2)nc1C [Compound 205] | 68 to 70 | 80 to 100 | 80 to 100 | – | – |
| Cc1nn(CC(=O)N(C)c2sc(-c3cccnc3)nc2Cl)c(C)c1S(=O)(=O)N(C)C [Compound 390] | 185 to 186 | 80 to 100 | < 80 | – | – |
| COC(=O)CCC(=O)Nc1sc(-c2cccnc2)nc1C [Compound 197] | 151 to 153 | < 80 | 80 to 100 | – | – |
| COCCOC(=O)Nc1sc(-c2cccnc2)nc1C [Compound 379] | 131 to 134 | < 80 | 80 to 100 | – | – |
| CC(C)C(=O)N(C)c1cnc(-c2ccc(Cl)nc2)s1 [Compound 69] | 155 to 159 | 80 to 100 | < 80 | – | – |
| CCN(C(=O)C(C)CSC)c1sc(-c2cccnc2)nc1Cl (stereo not drawn) [Compound 316, N-(4-chloro-2-pyridin-3-yl-thiazol-5-yl)-N-ethyl-2-methyl-3-methylsulfanyl-propionamide] | 79 to 81 | < 80 | 80 to 100 | – | – |
| Cc1nc(-c2cncc(F)c2)sc1NC(=O)C(C)C[S+](C)[O-] (stereo not drawn) [Compound 145] | 194 to 198 | < 80 | 80 to 100 | – | – |
| CCN(C(=O)c1cnn(C)c1C(F)(F)F)c1sc(-c2cccnc2)nc1Cl [Compound 577] | 115 to 117 | – | – | < 80 | 80 to 100 |
| CSCCC(=O)N(C)c1cnc(-c2cncc(F)c2)s1 [Compound 30, N-[2-(5-fluoro-pyridin-3-yl)-thiazol-5-yl]-N-methyl-3-methylsulfanyl-propionamide] | 111 to 114 | < 80 | 80 to 100 | – | – |
| CSCC(C)C(=O)Nc1sc(-c2ccc(Cl)nc2)nc1C (stereo not drawn) [Compound 169] | 142 to 146 | 80 to 100 | < 80 | – | – |
| Cc1nc(-c2cccnc2)sc1NC(=O)[C@H](C)NC(=O)OC(C)(C)C [Compound 187] | 166 to 169 | < 80 | 80 to 100 | – | – |
| CCN(C(=O)C(C)Cn1nc(C)nc1C)c1sc(-c2cccnc2)nc1Cl (stereo not drawn) [Compound 541] | 102 to 105 | – | – | < 80 | 80 to 100 |
| CN(C(=O)NCC[S+](C)[O-])c1cnc(-c2cncc(F)c2)s1 (stereo not drawn) [Compound 82] | 202 to 203 | < 80 | 80 to 100 | – | – |
